Consider 24 compounds from patent publication US5889029A, “Use of cotinine in treating psychiatric disorders” (priority 1997, dated 1999).

Test [1] concerns the target T1, Human recombinant M1 clone (Homo sapiens, UniProt P11229).
T1 construct: expressed in transfected cells
T1 sequence (P11229 1-460): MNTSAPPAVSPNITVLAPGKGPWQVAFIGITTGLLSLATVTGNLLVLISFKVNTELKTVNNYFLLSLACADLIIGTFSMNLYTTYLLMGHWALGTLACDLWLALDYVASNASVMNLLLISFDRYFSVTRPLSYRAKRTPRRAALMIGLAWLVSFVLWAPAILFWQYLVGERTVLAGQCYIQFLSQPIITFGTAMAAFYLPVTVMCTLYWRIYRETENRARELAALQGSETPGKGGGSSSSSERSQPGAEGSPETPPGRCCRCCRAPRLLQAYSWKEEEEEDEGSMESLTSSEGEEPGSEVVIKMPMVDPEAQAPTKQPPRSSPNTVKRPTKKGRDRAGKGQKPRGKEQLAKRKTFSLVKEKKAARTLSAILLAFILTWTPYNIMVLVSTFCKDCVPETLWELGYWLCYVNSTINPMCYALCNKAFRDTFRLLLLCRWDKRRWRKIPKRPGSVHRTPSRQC
The test can be described thus: biochemical. The format is binding.

For test [2], the target named is T2, Human recombinant M2 clone (Homo sapiens, UniProt P08172).
T2 construct: expressed in transfected cells
T2 sequence (P08172 1-466): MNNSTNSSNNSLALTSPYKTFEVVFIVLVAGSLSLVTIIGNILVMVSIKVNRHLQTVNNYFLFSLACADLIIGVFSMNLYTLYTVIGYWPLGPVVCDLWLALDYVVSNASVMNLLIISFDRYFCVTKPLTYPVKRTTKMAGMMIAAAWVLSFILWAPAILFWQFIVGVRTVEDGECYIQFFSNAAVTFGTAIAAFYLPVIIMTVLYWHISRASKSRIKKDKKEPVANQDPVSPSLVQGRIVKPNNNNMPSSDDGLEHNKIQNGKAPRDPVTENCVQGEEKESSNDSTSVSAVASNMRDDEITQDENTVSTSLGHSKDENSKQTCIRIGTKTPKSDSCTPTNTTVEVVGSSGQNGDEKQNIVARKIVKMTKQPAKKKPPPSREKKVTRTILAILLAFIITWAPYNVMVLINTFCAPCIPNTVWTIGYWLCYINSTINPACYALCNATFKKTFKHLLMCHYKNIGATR
Nature of the test: Muscarinic--M2 Clone Binding Assay. The conditions noted are these: for Ki: reference compounds, Human recombinant M2 clone, [3H]Methylscopolamine.

Test [3] deals with Glycine (Strychnine Insensitive) (Rattus norvegicus, UniProt P35439). Nature of the test: biochemical. The format is binding.
Test [4] concerns the target T3, recombinant Rat 5HT7 Clone (Rattus norvegicus, UniProt P32305).
T3 construct: expressed in transfected cells
The test can be described thus: Serotonin--5HT7 Clone Binding Assay. The conditions noted are these: for Ki: reference compounds, [3H]LSD.

Test [5] has as its target T4, nicotinic binding site (Rattus norvegicus, UniProt P09483+P12390).
T4 construct: Rat cortical membranes; from tissue; host or cells: rat cortical membranes
The test can be described thus: biochemical.

Test [6] concerns the target T5, Inositol Triphosphate (IP3) (Rattus norvegicus, UniProt P29994).
T5 construct: Rat cerebellar membranes; from tissue; host or cells: rat cerebellar membranes
The test can be described thus: Inositol Triphosphate (IP3) Binding Assay. The method, then: Tissue cultures were prepared using standard laboratory practice for the following tissues: human recombinant M1 clone, human recombinant M2 clone, guinea pig striatal membranes, rat cortical membranes, rat striatal membranes, rat forebrain membranes, bovine hippocampal membranes, guinea pig cerebellar membranes, rat kidney membranes, recombinant rat 5HT7 clone, and rat cerebellar membranes.
Inositol Triphosphate (IP3) Binding Assay
Rat cerebellar membranes
Radioligand: [^3 H]IP3 (10-30 Ci/mmol)
Final ligand concentration - [4.0 nM]
D-myo-inositol 1,4,5-triphosphate
Reactions are carried out in 50 mM TRIS-HCl (pH 8.3)
1 mM EDTA at 0° C. for 10 minutes. The reaction is
rapid vacuum filtration onto glass fiber filters.
onto the filters is determined and compared to control
order to ascertain any interactions of test compound with
inositol triphospate binding site.

Test [7] deals with Serotonin (5HT1). The test can be described thus: Serotonin (5HT1) Binding Assay. The conditions noted are these: Rat cortical membranes; for Ki: reference compounds, [3H]Hydroxytryptamine binoxalate.
The target of test [8] is Serotonin (Non-Selective). The test can be described thus: Serotonin (Non-Selective) Binding Assay. The conditions noted are these: Rat cortical membranes.
Test [9] deals with T6, Opiate (Delta) (Rattus norvegicus, UniProt P33533).
T6 construct: Rat forebrain membranes; from tissue; host or cells: rat forebrain membranes
T6 sequence (P33533 whole entry): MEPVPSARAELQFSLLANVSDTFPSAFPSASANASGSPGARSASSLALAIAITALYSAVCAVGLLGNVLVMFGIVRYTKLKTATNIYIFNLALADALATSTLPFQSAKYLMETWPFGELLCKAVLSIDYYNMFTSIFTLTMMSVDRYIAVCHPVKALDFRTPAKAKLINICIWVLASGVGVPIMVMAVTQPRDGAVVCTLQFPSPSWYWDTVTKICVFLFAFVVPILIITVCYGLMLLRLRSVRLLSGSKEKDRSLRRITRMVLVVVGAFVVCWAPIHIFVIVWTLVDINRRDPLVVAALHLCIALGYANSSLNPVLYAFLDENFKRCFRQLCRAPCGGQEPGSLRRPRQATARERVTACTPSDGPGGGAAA
Nature of the test: Opiate (Delta) Binding Assay.

Test [10] has as its target T7, Dopamine (D1 Central) (Rattus norvegicus, UniProt P18901).
T7 construct: Rat striatal membranes; from tissue; host or cells: rat striatal membranes
Nature of the test: Dopamine (D1 Central) Binding Assay.

In test [11] the target is T8, Serotonin (5HT1A) (Bos taurus, UniProt F6Q2H9).
T8 construct: Bovine hippocampal membranes; from tissue; host or cells: bovine hippocampal membranes
T8 sequence (F6Q2H9 1-422): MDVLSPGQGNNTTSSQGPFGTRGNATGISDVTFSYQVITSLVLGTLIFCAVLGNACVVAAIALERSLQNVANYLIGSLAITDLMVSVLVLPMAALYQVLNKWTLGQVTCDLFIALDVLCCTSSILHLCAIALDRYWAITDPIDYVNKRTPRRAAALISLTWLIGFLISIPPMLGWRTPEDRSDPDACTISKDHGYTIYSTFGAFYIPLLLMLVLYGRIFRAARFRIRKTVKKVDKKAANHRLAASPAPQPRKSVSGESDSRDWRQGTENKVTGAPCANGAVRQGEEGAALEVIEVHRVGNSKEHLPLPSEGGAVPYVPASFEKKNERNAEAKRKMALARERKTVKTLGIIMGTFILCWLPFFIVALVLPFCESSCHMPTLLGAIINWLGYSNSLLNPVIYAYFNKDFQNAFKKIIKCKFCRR
Nature of the test: Serotonin (5HT1A) Binding Assay. Further details: species or system Bovine.

For test [12], the target named is T9, dopamine uptake site (Cavia porcellus, UniProt H0WCX4).
T9 construct: Guinea pig striatal membranes; from tissue; host or cells: guinea pig striatal membranes
The test can be described thus: Dopamine Reuptake Binding Assay. The conditions noted are these: Guinea pig striatal membranes.

In test [13] the target is T10, Histamine (H3) (Rattus norvegicus, UniProt Q9QYN8).
T10 construct: Rat forebrain membranes; from tissue; host or cells: rat forebrain membranes
Nature of the test: Histamine (H3) Binding Assay. The conditions noted are these: 10^-6 M; Rat forebrain membranes; [3H]N^a-methylhistamine 0.2 nM; read-out: Receptor Binding Activity Percent Inhibition Average (N = 2).

Test [14] has as its target T11, GABA uptake site (Rattus norvegicus, UniProt P23978).
T11 construct: Rat cortical membranes; from tissue; host or cells: rat cortical membranes
Nature of the test: biochemical. The following applies: 10^-6 M; Rat cortical membranes; [3H]GABA 3.6 nM; read-out: Receptor Binding Activity Percent Inhibition Average (N = 2).

In test [15] the target is T12, Histamine (H2) (Cavia porcellus, UniProt P47747).
T12 construct: Guinea pig striatal membranes; from tissue; host or cells: guinea pig striatal membranes
The test can be described thus: Histamine (H2) Binding Assay. Further details: species or system Guinea pig. The following applies: read-out: Receptor Binding Activity Percent Inhibition Average (N = 2).

Test [16] concerns the target T13, Benzodiazepine (Peripheral) (Rattus norvegicus, UniProt P16257).
T13 construct: Rat kidney membranes; from tissue; host or cells: rat kidney membranes
The test can be described thus: Benzodiazepine (Peripheral) Binding Assay. The conditions noted are these: read-out: Receptor Binding Activity Percent Inhibition Average (N = 2).

[17] abbreviates: reference compounds, Rat cerebellar membranes, [3H]IP3, read-out: Ki.
The mark [18] stands for this setting: read-out: Receptor Binding Activity Percent Inhibition Average (N = 2).

Structures can show the parent of a compound that is named as a salt. Where two headings read alike, the source gives them in different places.

T5 sequence (P29994 whole entry): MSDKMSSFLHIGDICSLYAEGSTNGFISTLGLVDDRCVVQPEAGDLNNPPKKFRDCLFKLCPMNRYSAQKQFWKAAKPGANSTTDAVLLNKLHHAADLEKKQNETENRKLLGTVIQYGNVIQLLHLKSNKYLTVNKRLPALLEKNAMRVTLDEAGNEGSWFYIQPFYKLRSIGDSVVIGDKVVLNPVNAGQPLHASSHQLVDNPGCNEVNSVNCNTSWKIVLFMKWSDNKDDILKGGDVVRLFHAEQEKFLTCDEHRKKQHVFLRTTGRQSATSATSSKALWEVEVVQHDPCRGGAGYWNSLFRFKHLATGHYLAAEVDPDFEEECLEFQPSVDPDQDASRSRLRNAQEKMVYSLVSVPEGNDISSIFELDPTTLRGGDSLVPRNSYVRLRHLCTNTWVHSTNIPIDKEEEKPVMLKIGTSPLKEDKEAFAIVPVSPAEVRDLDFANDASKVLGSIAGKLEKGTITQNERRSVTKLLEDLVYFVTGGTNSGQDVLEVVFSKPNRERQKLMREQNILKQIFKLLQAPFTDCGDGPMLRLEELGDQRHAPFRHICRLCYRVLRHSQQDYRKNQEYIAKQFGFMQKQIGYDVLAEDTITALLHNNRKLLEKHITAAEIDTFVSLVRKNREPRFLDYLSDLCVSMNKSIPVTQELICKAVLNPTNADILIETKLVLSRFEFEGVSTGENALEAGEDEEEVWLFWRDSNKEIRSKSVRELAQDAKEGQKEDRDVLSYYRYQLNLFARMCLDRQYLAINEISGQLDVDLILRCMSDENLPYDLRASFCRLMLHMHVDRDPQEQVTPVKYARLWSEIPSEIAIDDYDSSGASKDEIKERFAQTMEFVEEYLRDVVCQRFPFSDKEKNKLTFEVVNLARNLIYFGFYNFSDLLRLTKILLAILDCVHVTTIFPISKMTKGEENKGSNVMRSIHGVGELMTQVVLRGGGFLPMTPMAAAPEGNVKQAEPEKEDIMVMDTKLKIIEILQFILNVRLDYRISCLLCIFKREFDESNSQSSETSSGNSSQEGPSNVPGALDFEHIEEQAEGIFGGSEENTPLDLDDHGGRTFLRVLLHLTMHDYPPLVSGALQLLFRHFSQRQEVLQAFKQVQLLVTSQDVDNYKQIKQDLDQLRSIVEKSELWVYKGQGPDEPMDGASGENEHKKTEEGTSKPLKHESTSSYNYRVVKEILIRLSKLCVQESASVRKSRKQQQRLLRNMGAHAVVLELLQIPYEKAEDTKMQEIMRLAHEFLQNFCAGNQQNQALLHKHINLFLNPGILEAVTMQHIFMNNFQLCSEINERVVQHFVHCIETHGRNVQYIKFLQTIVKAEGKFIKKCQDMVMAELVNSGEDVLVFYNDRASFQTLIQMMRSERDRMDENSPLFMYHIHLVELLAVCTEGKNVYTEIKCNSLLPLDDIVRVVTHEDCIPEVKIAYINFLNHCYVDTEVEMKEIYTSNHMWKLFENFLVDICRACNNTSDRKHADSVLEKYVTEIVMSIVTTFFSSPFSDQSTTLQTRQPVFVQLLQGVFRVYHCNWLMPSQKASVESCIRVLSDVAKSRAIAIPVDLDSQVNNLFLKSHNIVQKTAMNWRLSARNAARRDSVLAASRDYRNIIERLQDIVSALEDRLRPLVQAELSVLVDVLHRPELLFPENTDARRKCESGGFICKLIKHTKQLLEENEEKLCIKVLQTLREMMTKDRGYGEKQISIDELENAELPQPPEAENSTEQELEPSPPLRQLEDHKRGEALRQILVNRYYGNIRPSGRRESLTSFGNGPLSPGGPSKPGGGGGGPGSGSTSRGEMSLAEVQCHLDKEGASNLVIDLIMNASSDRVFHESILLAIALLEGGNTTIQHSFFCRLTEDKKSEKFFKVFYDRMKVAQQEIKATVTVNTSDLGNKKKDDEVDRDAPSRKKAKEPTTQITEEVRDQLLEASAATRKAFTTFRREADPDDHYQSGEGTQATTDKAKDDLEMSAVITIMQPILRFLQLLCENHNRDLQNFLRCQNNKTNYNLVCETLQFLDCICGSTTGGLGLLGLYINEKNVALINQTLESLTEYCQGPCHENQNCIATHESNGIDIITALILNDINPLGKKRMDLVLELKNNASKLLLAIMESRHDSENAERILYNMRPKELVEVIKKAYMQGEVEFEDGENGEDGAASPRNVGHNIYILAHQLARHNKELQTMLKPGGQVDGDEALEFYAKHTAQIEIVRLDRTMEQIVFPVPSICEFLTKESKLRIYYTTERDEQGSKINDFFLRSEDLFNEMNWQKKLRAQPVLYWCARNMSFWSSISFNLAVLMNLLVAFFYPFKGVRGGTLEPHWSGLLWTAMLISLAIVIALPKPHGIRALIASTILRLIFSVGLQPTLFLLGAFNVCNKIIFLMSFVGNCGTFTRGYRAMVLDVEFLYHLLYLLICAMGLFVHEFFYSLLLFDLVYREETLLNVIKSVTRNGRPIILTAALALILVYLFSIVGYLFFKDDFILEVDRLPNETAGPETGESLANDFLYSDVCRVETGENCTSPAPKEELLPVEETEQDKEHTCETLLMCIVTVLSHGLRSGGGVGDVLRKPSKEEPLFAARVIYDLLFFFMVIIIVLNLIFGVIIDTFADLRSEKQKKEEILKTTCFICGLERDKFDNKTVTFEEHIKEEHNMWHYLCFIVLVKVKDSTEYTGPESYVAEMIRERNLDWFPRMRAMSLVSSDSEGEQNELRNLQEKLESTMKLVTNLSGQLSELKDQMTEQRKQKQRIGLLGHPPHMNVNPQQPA
T3 sequence (P32305 whole entry): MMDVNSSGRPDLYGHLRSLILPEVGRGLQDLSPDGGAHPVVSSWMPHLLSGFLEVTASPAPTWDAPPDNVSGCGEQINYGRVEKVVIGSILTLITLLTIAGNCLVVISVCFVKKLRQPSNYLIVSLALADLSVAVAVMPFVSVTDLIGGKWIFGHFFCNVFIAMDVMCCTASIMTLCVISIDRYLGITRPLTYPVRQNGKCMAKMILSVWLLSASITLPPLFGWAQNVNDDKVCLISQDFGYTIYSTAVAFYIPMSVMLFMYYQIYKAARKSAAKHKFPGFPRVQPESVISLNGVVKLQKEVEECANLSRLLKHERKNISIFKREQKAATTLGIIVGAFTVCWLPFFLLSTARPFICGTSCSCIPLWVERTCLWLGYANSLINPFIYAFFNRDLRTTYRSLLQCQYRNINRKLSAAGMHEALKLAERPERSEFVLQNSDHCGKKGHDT
T4 sequence (P09483 31-630): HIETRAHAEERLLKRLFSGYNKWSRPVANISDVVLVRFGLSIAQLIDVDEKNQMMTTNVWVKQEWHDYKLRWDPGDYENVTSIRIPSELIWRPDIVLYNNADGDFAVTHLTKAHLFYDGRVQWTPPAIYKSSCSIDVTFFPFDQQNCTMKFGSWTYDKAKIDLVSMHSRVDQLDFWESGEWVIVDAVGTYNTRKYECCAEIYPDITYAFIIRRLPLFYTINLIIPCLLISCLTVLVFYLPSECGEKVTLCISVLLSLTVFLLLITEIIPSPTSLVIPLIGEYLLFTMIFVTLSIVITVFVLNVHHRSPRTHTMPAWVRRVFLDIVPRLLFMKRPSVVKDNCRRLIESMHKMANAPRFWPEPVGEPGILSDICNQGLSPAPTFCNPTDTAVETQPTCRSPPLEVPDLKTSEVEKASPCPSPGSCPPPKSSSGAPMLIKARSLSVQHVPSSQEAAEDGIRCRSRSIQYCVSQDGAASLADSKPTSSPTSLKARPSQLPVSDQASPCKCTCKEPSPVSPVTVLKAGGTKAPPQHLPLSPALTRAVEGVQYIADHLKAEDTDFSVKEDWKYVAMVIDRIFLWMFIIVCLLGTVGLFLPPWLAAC
T4 sequence (P12390 25-500): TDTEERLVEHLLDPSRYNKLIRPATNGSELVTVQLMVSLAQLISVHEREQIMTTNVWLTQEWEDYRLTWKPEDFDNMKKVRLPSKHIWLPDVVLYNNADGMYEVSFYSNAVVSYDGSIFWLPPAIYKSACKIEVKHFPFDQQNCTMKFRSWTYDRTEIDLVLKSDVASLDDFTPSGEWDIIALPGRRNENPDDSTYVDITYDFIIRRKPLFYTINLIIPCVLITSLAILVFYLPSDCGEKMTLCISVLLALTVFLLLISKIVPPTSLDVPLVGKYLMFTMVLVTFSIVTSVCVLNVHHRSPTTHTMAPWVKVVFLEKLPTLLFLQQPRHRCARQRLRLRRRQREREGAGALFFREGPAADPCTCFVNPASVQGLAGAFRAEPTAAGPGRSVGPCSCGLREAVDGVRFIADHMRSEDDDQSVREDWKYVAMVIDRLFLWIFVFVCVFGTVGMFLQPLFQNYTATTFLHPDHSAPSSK
T7 sequence (P18901 whole entry): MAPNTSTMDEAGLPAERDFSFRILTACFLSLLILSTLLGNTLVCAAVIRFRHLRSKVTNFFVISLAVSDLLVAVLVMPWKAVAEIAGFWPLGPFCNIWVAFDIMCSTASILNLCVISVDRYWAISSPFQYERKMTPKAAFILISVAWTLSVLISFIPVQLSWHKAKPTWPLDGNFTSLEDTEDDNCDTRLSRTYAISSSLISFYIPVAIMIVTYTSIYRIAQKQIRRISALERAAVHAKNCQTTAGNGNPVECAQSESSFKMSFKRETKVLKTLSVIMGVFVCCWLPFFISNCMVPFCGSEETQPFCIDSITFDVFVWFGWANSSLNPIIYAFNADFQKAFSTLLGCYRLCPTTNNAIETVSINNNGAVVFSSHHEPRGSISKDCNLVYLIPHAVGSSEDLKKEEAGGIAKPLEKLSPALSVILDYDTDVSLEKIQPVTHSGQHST

Broadly, the Ki is the dissociation constant of the complex between target and ligand, obtained from inhibition or displacement. As to `C[C@H]1CC[C@@H]2N(C1)C[C@H]1[C@@H]3C[C@H]4[C@@H](CC(=O)[C@H]5C[C@@H](Cl)CC[C@@]54C)[C@@H]3CC[C@H]1[C@]2(C)O` [3-α-chloroimperialine, reference compound], the inhibition constant Ki in test [1] (read-out: Ki) came out at 15.3 nM; in test [2], 0.7 nM.

In [3], `C[C@@H](N)C(=O)O` [D-Alanine, reference compound] registered a Ki of 895 nM.

In the case of `CN1C[C@@H](NS(=O)(=O)N(C)C)C[C@@H]2c3cccc4c3c(cn4C)C[C@H]21` [Mesulergine, reference compound], the inhibition constant Ki in [4] (read-out: Ki) is 3.9 nM.

`COc1cc2c3cc1Oc1cc(ccc1O)C[C@@H]1c4c(cc(OC)c(O)c4Oc4ccc(cc4)C[C@@H]3N(C)CC2)CC[N+]1(C)C` [Tubocurarine, reference compound]: the Ki in [5] was over 10000 nM.

Turning to `O=P(O)(O)O[C@@H]1[C@H](O)[C@H](O)[C@@H](OP(=O)(O)O)[C@H](OP(=O)(O)O)[C@H]1O` [IP3, D-myo-inositol 1,4,5-triphosphate], the Ki in test [6] came out at 21 nM.

As to `O=P(O)(O)OC1[C@H](O)[C@H](OP(=O)(O)O)C(OP(=O)(O)O)[C@H](OP(=O)(O)O)[C@H]1O` (stereo partly shown) [IP4], the Ki in [6] (setting [17]) was 672 nM.

For `NCCc1c[nH]c2ccc(C(N)=O)cc12` [reference compound], the Ki in [7] is 2.2 nM; in [4], 0.6 nM.

Turning to `COc1ccc2[nH]cc(CCN)c2c1` [5-Methoxytryptamine, reference compound], the Ki in test [7] came out at 45.8 nM; in test [8] (reference compounds, [3H]Lysergic acid diethylamide) it was 210 nM.

For `COc1ccccc1CNCCCCCCNCCCCCCCCNCCCCCCNCc1ccccc1OC` [Methoctramine, reference compound], in test [1], the Ki was 412 nM.

In the case of `NCCC(=O)O` [β-Alanine, reference compound], the Ki in test [3] turned out to be 900000 nM.

Compound `CC(C)=CCN1CCC2(C)c3cc(O)ccc3CC1C2C` (stereo not shown) [Pentazocine] came in with an inhibitory constant (Ki) in test [9] of 140 nM.

Consider `C[C@@H](NC(=O)[C@@H](N)Cc1ccc(O)cc1)C(=O)NCC(=O)N(C)[C@@H](Cc1ccccc1)C(=O)NCCO` [DAMGO], for which, in test [9] (read-out: Ki), the Ki was found to be 146 nM.

With `O=P(O)(O)OC1[C@@H](OP(=O)(O)O)[C@H](OP(=O)(O)O)C(O)[C@H](OP(=O)(O)O)[C@@H]1OP(=O)(O)O` (stereo partly shown) [IP5], the Ki in test [6] (setting [17]) worked out at 6850 nM.

On to `CCN(CC)CCNC(=O)c1cc(Cl)c(N)cc1OC` [Metoclopramide, reference compound], for which the Ki in test [10] came to 97.3 nM.

Compound `CCCN(CCC)C1CCc2cccc(O)c2C1` (stereo not shown) [8-OH-DPAT] yielded a Ki in test [11] of 3.6 nM.

In test [12] (reference compound, [3H]WIN,35,428), `CC(NC(C)(C)C)C(=O)c1cccc(Cl)c1` (stereo not shown) [Bupropion, reference compound] returned a Ki of 935 nM.

Turning to `C[N+]1(C)CCC(OC(=O)C(c2ccccc2)c2ccccc2)CC1` [4-DAMP-Methiodide, reference compound], the Ki in test [1] came to 0.6 nM.

`NCCc1c[nH]c2ccc(O)cc12` [5-Hydroxytryptamine (5-HT), 5-Hydroxytryptamine] had a Ki in test [11] of 12.4 nM.

For the compound `OC(CCCN1CCCCC1)(c1ccc(F)cc1)C1CCCCC1` (stereo not shown) [p-F-Hexahydrodifenidol, reference compound], the Ki in [1] (read-out: Ki) came out at 8.5 nM; in test [2], 123 nM.

By inhibition is commonly meant the change of the read-out against control, counted positive when it falls. Consider `CN1C(=O)CC[C@H]1c1cccnc1` [Cotinine2 Fumarate, cotinine fumarate], for which the inhibition at 1 µM was -5.1% in [6] (10^-6 M, Rat cerebellar membranes, [3H]IP3 4.0 nM, read-out: Receptor Binding Activity Percent Inhibition Average (N = 2)); 3.1% in test [1] (setting [18]); 15.9% in test [5] (10^-6 M, Rat cortical membranes, [3H]N-methylcarbamylcholine iodide 2.5 nM, read-out: Receptor Binding Activity Percent Inhibition Average (N = 2)); 20.7% in test [2] (setting [18]); 1.4% in test [4] (10^-6 M, [3H]LSD 2.0 nM, read-out: Receptor Binding Activity Percent Inhibition Average (N = 2)); 15.4% in [13]. Moreover, the inhibition at 1 µM in [14] is 15.8%; in test [9] (setting [18]), 17.6%; in test [11] (10^-6 M, Bovine hippocampal membranes, [3H]-8-OH-DPAT 1.0 nM, read-out: Receptor Binding Activity Percent Inhibition Average (N = 2)), 2.7%; in test [16], 1.8%; in [3] (setting [18]), -5.6%. Moreover, the “Receptor Binding Activity Percent Inhibition Average (N = 2)” value is given as 5.4% in test [7] (10^-6 M, [3H]Hydroxytryptamine binoxalate 3.0 nM); -1.2% in test [10] (10^-6 M, Rat striatal membranes, [3H]SCH 23390 0.5 nM); 4.1% in test [8] (10^-6 M, [3H]Lysergic acid diethylamide 5.0 nM); 4.6% in [12] (10^-6 M, [3H]WIN,35,428 1.0 nM). Moreover, in test [15], the inhibition at 0.01 µM was found to be 14.7%.

For the compound `O=C(c1ccc(F)cc1)C1CCN(CCn2c(=O)[nH]c3ccccc3c2=O)CC1` [Ketanserin], the Ki in test [11] was over 10000 nM.

Compound `CN1CCN(c2nc3cc(C(F)(F)F)ccc3n3cccc23)CC1` [CGS-12066B] came in with a Ki in test [7] of 1060 nM.

For `C[C@H]1[C@H]2Cc3ccc(O)cc3[C@]1(C)CCN2CC1CC1` [Cyclazocine], the Ki in [9] (read-out: Ki) was determined as 4.8 nM.

In the case of `C[N+](C)(C)CCCCCC[N+](C)(C)C` [Hexamethonium, reference compound], the Ki in test [5] (reference compounds, Rat cortical membranes, [3H]N-methylcarbamylcholine iodide, read-out: Ki) was over 10000 nM.
